The record followed here is patent publication US7964701B2, “Alpha-fetoprotein peptides” (Albany Medical College, priority 2006, dated 2011).

Where a SMILES comes first, the peptide text is derived from it. Where no end group is shown, it is not given here. [ ]: non-standard residue; d: D form. Hyp = O=C(O)[C@@H]1C[C@@H](O)CN1 Bounds are passed on as bounds.

For assay [1], the system named is E2-stimulated growth of mouse uterus. In words: Immature mouse uterine growth assay. Format: in vivo. The settings on record: for dose-response profile, inhibition of E2-stimulated uterine growth: FIG. 5; for antiestrogenic activity (inhibition of E2-stimulated uterine growth), in words: Table 3 discussion; for antiestrogenic activity (inhibition of E2-stimulated uterine growth), in words / Inhibition ± S.E, % Immature mouse uterine growth Intraperitoneal: 1 μg/mouse intraperitoneally; for Activity % ± SD (percent growth inhibition of uterus): dose 1 ug/animal. From the text:
The anti-breast cancer activity of the linear and cyclic 8-mer and 9-mer AFP-derived peptides is well-documented using the immature mouse uterine growth assay and the human breast cancer xenograft assay; there is a strong correlation between the results of these two assays. To evaluate peptide-induced inhibition by the peptide of the present invention of estrogen-stimulated proliferation of normal tissue, the immature mouse uterine growth assay was utilized. Briefly, 13-15 day-old Swiss/Webster female mice, 6-8 g in body weight, were distributed into treatment groups of 5 mice per group so that each group contained animals of the same range of body weight. The peptide of the invention was injected i.p., s.c., or p.o. into the mice. One hour later, estradiol (E2) or vehicle control for E2 was injected i.p. Twenty-two hours after the second injection, uteri were harvested, trimmed free of mesenteries, and immediately weighed. The uterine weights were normalized to mouse body weights to compensate for differences in body weight among litters of the same age. Experiments employed a minimum of five mice per group and the mean normalized uterine weight±SE for each group was calculated. Percent growth inhibition in a test group was calculated from normalized uterine wet weights as described below.
Differences between groups were evaluated, employing the nonparametric Wicoxon ranks sum test. In all cases, growth inhibitions that were greater than 25% were significant at P≦0.05.
In other experiments, peptide analogs comprising the sequences TOVN SEQ ID NO.: 3) and TPVN (SEQ ID NO.: 2) were assessed for their ability to inhibit E2-stimulated growth of mouse uterus after intraperitoneal and oral administration.
The ability to inhibit E2-stimulated growth of normal mouse uterus was used as a screening assay for biological activity of AFPep analogs. In general, inhibitory activity≧20% is considered to be biologically significant. Each analog's inhibitory effect on E2-stimulated growth was compared to AFPep (a positive control) and to PGVGQ (SEQ ID NO.: 44)(a negative control). PGVGQ (SEQ ID NO.: 44) (amino acids 478-482 of AFP) is a portion of the primary structure of AFP near to the anti-cancer active site of AFP and is comprised of amino acids (P, V, and G) that are important components of AFPep. A scrambled analog of AFPep was not used because some scrambled peptides retain low biological activity (data not shown). In Table 3, bold letters denote the sequences containing a putative Type I beta-turn, which was postulated to be necessary for antiestrogenic activity.

The test system of assay [2] is T47D human breast cancer cells. As to conditions: for dose response profile, inhibition of E2-stimulated T47D cell growth / concentration up to which E2-stimulated T47D growth was inhibited in a concentration dependent manner / activity maintained: FIG. 6; for inhibition of E2-stimulated T47D cell growth, in words: Table 3 discussion, 1 μM. How it is done:
T47D cells were obtained from ATCC® (Rockville, Md.) and grown in culture according recommended protocols. Cells were treated with 1 nM estrogen or 100 nM TOVNO (SEQ ID NO.: 7)/1 nM estrogen. Control cells received 10% estrogen-free media. Cells were treated for seven days.
A number of AFPep analogs were assessed for in vitro anticancer activity.

Assay [3] relates to MCF-7 human breast cancer cells. Briefly: MCF-7 human tumor xenograft assay in SCID mice. Format: in vivo, mouse. The settings on record: for change in mean tumor volume: FIG. 1. How it is done: The peptides of the invention were evaluated for their ability to inhibit tumor growth in a human tumor xenograft assay. Briefly, MCF-7 human breast cancer cells were obtained from ATCC® (Rockville, Md.) and were grown in DMEM supplemented with 5% FCS, 1% non-essential amino acids, 10 ng/ml insulin, 2 mM L-glutamine, 100 units/ml penicillin, and 100 μg/ml streptomycin. MCF-7 cells from culture were solidified into a fibrin clot. The tumor-containing clots were cut into pieces about 1.5 mm in diameter and implanted under the kidney capsule of severe combined immunodeficient (ICR-SCID) mice (Taconic Farms, Germantown, N.Y.) as described in Bennett et al. (Clin. Cancer Res. 1998; 4:2877-84).
Estrogen supplementation of mice was required for the growth of MCF-7 tumors. Supplementation was accomplished by s.c. implantation of a Silastic tubing capsule containing solid E2 (2 mm in length) inserted on the day of tumor implantation. Tumor size was evaluated during survival laparotomy using a dissecting microscope at the time of tumor implantation and at days 15 and 30 after tumor implantation.
The T47D human breast cancer cell line is responsive in culture, but it was a less reliable tool when grown as a xenograft tumor in immune deficient mice, having a take-rate of <60% in these mice. However, the MCF-7 human breast cancer cell line has a tumor take-rate of 100% in immune deficient mice and is completely dependent on E2 for growth in these mice (2). Consequently, MCF-7 xenografts were used as a model for ER+human breast cancer to evaluate, in vivo, the effectiveness of TOVNO (SEQ ID NO.: 7) and TOVNOGNEK (SEQ ID NO.: 34) as anticancer agents.
On the technique in general: Xenograft models place foreign cells or tissue in a host animal.

[4] abbreviates: once a day 10 μg per mouse i.p., FIG. 7b.
The mark [5] stands for this setting: once a day 100 μg by oral gavage, FIG. 7a.

Consider `CC(C)[C@H](NC(=O)[C@@H]1C[C@@H](O)CN1C(=O)[C@@H](NC(=O)[C@H](CCCCN)NC(=O)[C@@H](N)CCC(=O)O)[C@@H](C)O)C(=O)N[C@@H](CC(N)=O)C(=O)N1C[C@H](O)C[C@H]1C(=O)NCC(=O)N[C@@H](CC(N)=O)C(N)=O` [EKTOVNOGN] (H-EKT[Hyp]VN[Hyp]GN-NH2; N-terminus and C-terminus assumed), for which, in assay [1], the “dose-response profile, inhibition of E2-stimulated uterine growth” value (“dose-response profile, inhibition” below) is reported as “biphasic dose-response curve” and the “antiestrogenic activity (inhibition of E2-stimulated uterine growth), in words” value is reported as “active at this dose”. In assay [2], the “dose response profile, inhibition of E2-stimulated T47D cell growth” value (“dose response profile, inhibition” for short) is given as “biphasic dose response curve”.

As to `CC(C)[C@H](NC(=O)[C@@H]1C[C@@H](O)CN1C(=O)[C@@H](NC(=O)[C@H](CCCCN)NC(=O)[C@@H](N)CCC(=O)O)[C@@H](C)O)C(N)=O` [EKTOV] (H-EKT[Hyp]V-NH2; N-terminus assumed), the “antiestrogenic activity (inhibition of E2-stimulated uterine growth), in words” value in assay [1] is “little or no antiestrogenic activity”.

Turning to `CC(C)[C@H](NC(=O)[C@@H]1C[C@@H](O)CN1C(=O)[C@@H](NC(=O)[C@@H](N)CCCCN)[C@@H](C)O)C(=O)N[C@@H](CC(N)=O)C(=O)N1C[C@H](O)C[C@H]1C(=O)NCC(N)=O` [KTOVNOG] (H-KT[Hyp]VN[Hyp]G-NH2; N-terminus and C-terminus assumed), the “antiestrogenic activity (inhibition of E2-stimulated uterine growth), in words” value in assay [1] is on record as “significantly inhibited E2-stimulated uterine growth”.

For the molecule `CC(C)[C@H](NC(=O)[C@@H]1C[C@@H](O)CN1)C(=O)N[C@@H](CC(N)=O)C(=O)N1C[C@H](O)C[C@H]1C(=O)NCC(N)=O` [OVNOG] (H-[Hyp]VN[Hyp]G-NH2; N-terminus assumed), the “antiestrogenic activity (inhibition of E2-stimulated uterine growth), in words” value in assay [1] is reported as “weakly inhibited E2-stimulated uterine growth”.

With `CC(C)[C@H](NC(=O)[C@@H]1C[C@@H](O)CN1)C(=O)N[C@@H](CC(N)=O)C(=O)N1C[C@H](O)C[C@H]1C(N)=O` [OVNO] (H-[Hyp]VN[Hyp]-NH2; N-terminus assumed), the “antiestrogenic activity (inhibition of E2-stimulated uterine growth), in words” value in assay [1] is given as “lacked antiestrogenic activity”. The “inhibition of E2-stimulated T47D cell growth, in words” value in assay [2] is “lacked inhibitory activity”.

For `CC(C)[C@H](NC(=O)[C@@H]1C[C@@H](O)CN1C(=O)[C@@H](N)[C@@H](C)O)C(=O)N[C@@H](CC(N)=O)C(=O)N1C[C@H](O)C[C@H]1C(=O)NCC(=O)N[C@@H](CC(N)=O)C(=O)N[C@@H](CCC(=O)O)C(=O)N[C@@H](CCCCN)C(N)=O` [TOVNOGNEK] (H-T[Hyp]VN[Hyp]GNEK-NH2; N-terminus and C-terminus assumed), in assay [1], the “dose-response profile, inhibition” value is recorded as “maintained its inhibitory effect at high doses” and the “antiestrogenic activity (inhibition of E2-stimulated uterine growth), in words” value was “significantly inhibited E2-stimulated uterine growth”. In addition, the “growth of ER+ human MCF-7 breast cancer tumors” value in assay [3] (setting [4]) is “significantly inhibited”. Moreover, the “growth of ER+ human MCF-7 breast cancer tumors” value in assay [3] (setting [5]) is given as “significantly inhibited”. In assay [2], the “concentration up to which E2-stimulated T47D growth was inhibited in a concentration dependent manner / activity maintained” value is ≤ 10^−4 M; the “dose response profile, inhibition” value is listed as “maintained its activity with increasing concentrations”; the “inhibition of E2-stimulated T47D cell growth, in words” value was “comparable to AFPep”.

With `CC(C)[C@H](NC(=O)[C@@H]1C[C@@H](O)CN1C(=O)[C@@H](N)[C@@H](C)O)C(=O)N[C@@H](CC(N)=O)C(=O)N1C[C@H](O)C[C@H]1C(N)=O` [TOVNO] (H-T[Hyp]VN[Hyp]-NH2; N-terminus assumed), the “dose-response profile, inhibition” value in assay [1] is “biphasic dose-response curve”. Also, in assay [1] (FIG. 5c), the “dose up to which E2-stimulated uterine growth was inhibited in a dose-dependent manner” value is “up to 1 μg/mouse”. In addition, the “antiestrogenic activity (inhibition of E2-stimulated uterine growth), in words” value in assay [1] is “significantly inhibited E2-stimulated uterine growth”. Besides, the “change in mean tumor volume” value in assay [3] (100 μg/day p.o.) is given as “significantly decreased the increase in tumor volume”; in assay [3] (intraperitoneal 1 μg/day), “effective in reducing the increase in mean tumor volume”; in assay [3] (intraperitoneal 10 μg/day), “effective in reducing the increase in mean tumor volume”. The “growth of ER+ human MCF-7 breast cancer tumors” value in assay [3] (setting [4]) and in assay [3] (setting [5]) was “significantly inhibited” throughout. Further, the “estrogen-stimulated T47D cell proliferation” value in assay [2] (100 nM peptide/1 nM estrogen, seven days, FIG. 3) is given as “T47D cell proliferation was reduced”. Also, the “concentration up to which E2-stimulated T47D growth was inhibited in a concentration dependent manner / activity maintained” value in assay [2] is reported as “up to 10^−7 M”. Also, the “dose response profile, inhibition” value in assay [2] was “lost activity with increasing concentration thereafter”. The “inhibition of E2-stimulated T47D cell growth, in words” value in assay [2] was “significantly inhibited”.

For the molecule `CC(C)[C@H](NC(=O)[C@@H]1C[C@@H](O)CN1C(=O)[C@@H](N)[C@@H](C)O)C(=O)N[C@@H](CC(N)=O)C(N)=O` [TOVN] (H-T[Hyp]VN-NH2; N-terminus assumed), in assay [1], the “antiestrogenic activity (inhibition of E2-stimulated uterine growth), in words” value is on record as “weak antiestrogenic activity”. Moreover, the “inhibition of E2-stimulated T47D cell growth, in words” value in assay [2] is recorded as “very weak inhibitory activity”.

Turning to “EKTPV [5-mer outside the pharmacophoric region]”, in assay [1], the “Inhibition ± S.E, % Immature mouse uterine growth Intraperitoneal” value came to 0% and the “antiestrogenic activity (inhibition of E2-stimulated uterine growth), in words” value is recorded as “little or no antiestrogenic activity”.

In the case of “EMTOV (EMT[Hyp]V; not fully specified (C-terminus)) [5-mer outside the pharmacophoric region]”, in assay [1], the “Inhibition ± S.E, % Immature mouse uterine growth Intraperitoneal” value turned out to be 1 ± 1% and the “antiestrogenic activity (inhibition of E2-stimulated uterine growth), in words” value is on record as “little or no antiestrogenic activity”.

In the case of “EMTPV [5-mer outside the pharmacophoric region]”, in assay [1], the “Inhibition ± S.E, % Immature mouse uterine growth Intraperitoneal” value is reported as 5 ± 4% and the “antiestrogenic activity (inhibition of E2-stimulated uterine growth), in words” value is listed as “little or no antiestrogenic activity”.

For the molecule KTPVNPG, in assay [1], the “Inhibition ± S.E, % Immature mouse uterine growth Intraperitoneal” value amounted to 34 ± 2 % and the “antiestrogenic activity (inhibition of E2-stimulated uterine growth), in words” value is on record as “significantly inhibited E2-stimulated uterine growth”.

On to “MTOVNOG (MT[Hyp]VN[Hyp]G; not fully specified (C-terminus))”, for which, in assay [1], the “Inhibition ± S.E, % Immature mouse uterine growth Intraperitoneal” value was determined as 28 ± 2 % and the “antiestrogenic activity (inhibition of E2-stimulated uterine growth), in words” value was “significantly inhibited E2-stimulated uterine growth”.

Turning to PVNP, in assay [1], the “Inhibition ± S.E, % Immature mouse uterine growth Intraperitoneal” value is 6 ± 3% and the “Activity % ± SD (percent growth inhibition of uterus)” value is 10%.

Turning to TPVN, in assay [1], the “Inhibition ± S.E, % Immature mouse uterine growth Intraperitoneal” value is recorded as 29 ± 1 % and the “Activity % ± SD (percent growth inhibition of uterus)” value is reported as 27%.

For TPVNP, in assay [1], the “Inhibition ± S.E, % Immature mouse uterine growth Intraperitoneal” value is recorded as 27 ± 1 % and the “Activity % ± SD (percent growth inhibition of uterus)” value is given as 26%.
